The target in assay [1] is T1, WT ITK (His6-tagged human wild-type ITK kinase domain) (Homo sapiens, UniProt Q08881).
T1 construct: Ni-NTA, Q Sepharose, Superdex 200
T1 sequence (Q08881 357-620 limits assumed): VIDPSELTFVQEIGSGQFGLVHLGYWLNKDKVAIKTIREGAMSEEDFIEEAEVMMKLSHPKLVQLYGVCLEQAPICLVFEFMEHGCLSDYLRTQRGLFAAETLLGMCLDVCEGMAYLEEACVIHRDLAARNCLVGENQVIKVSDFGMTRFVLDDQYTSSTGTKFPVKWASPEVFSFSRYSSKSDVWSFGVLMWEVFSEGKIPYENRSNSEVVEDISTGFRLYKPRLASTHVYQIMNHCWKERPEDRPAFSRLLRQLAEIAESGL
Description: ADP-Glo kinase assay. The class given is biochemical. The text has this: ADP-Glo kinase assay on WT ITK (His6-tagged human wild-type ITK kinase domain)

The target in assay [2] is T1, WT ITK (His6-tagged human wild-type ITK kinase domain). Description: SPR (Biacore, NTA capture coupling). The class given is binding.
The target in another assay is CLK1 (Homo sapiens, UniProt P49759). The assay is described as follows: DiscoveRx KINOMEscan. As to conditions: read-out: Percentage of control binding / J-31. The text has this:
DiscoveRx KINOMEscan on CLK1

Assay [3] addresses T1, WT ITK (His6-tagged human wild-type ITK kinase domain). The assay is described as follows: biochemical kinase inhibition assay.
The target of a further assay is HCK (Homo sapiens, UniProt P08631). The assay is described as follows: DiscoveRx KINOMEscan. The note with it: read-out: Percentage of control binding / J-95. The text has this: DiscoveRx KINOMEscan on HCK
HCK, sequence (P08631 2-526): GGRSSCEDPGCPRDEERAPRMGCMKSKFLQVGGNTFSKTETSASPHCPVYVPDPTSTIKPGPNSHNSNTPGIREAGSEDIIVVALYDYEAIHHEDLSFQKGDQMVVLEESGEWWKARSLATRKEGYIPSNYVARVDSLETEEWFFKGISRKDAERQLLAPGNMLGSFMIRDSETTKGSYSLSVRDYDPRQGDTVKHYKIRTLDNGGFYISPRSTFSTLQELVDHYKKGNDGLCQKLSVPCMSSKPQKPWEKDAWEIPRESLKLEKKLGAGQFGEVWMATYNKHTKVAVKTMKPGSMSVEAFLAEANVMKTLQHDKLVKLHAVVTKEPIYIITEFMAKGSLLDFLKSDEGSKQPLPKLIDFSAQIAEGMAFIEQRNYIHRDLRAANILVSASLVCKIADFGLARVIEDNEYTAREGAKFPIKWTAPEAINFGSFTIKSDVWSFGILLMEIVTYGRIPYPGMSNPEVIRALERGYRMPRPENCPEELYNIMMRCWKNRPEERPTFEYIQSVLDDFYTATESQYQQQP
The next assay addresses LCK (Homo sapiens, UniProt P06239). The assay is described as follows: DiscoveRx KINOMEscan. As to conditions: read-out: Percentage of control binding / J-95. The text has this: DiscoveRx KINOMEscan on LCK

As usually defined, the IC50 is the concentration needed to halve the response being measured. Read a low IC50 as inhibition by little substance.

Read-outs that look alike come from different tables or passages of the source.

CLK1, sequence (P49759 whole entry): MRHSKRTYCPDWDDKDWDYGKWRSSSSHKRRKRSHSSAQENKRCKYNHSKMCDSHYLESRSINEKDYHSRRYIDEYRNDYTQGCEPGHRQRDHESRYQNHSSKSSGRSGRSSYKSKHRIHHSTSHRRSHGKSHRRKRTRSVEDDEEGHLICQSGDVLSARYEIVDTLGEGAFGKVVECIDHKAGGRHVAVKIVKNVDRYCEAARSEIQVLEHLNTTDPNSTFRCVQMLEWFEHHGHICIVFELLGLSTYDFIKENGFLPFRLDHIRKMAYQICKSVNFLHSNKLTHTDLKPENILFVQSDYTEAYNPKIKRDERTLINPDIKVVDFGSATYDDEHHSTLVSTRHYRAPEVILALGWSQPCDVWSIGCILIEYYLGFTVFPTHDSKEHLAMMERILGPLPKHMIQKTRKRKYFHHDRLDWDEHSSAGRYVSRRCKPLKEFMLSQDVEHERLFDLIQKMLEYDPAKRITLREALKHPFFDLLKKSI
LCK, sequence (P06239 2-509): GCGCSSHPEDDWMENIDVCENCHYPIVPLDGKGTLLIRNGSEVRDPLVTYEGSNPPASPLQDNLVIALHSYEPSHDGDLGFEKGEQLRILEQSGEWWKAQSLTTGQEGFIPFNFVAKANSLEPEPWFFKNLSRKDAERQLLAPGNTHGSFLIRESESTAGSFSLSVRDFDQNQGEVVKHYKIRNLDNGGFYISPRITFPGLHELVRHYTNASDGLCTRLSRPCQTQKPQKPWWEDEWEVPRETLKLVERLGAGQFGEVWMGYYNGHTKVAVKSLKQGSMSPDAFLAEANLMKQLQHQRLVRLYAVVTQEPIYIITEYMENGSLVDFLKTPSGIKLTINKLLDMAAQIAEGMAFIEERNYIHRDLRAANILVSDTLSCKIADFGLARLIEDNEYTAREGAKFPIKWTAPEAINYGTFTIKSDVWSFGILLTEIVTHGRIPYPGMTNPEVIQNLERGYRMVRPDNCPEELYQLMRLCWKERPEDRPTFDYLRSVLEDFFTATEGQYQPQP

In assay [1], `COc1cc(C)c(Sc2cnc(NC(=O)c3ccc(CNC(C)C(C)(C)C)cc3)s2)cc1C(=O)N1CCN(C(C)=O)CC1` (centres unmarked) [A, BMS-509744] yielded an IC50 of 2.5 nM. Also, the Kd in assay [2] (read-out: K D) is 1.3 nM.
In assay [1], `COc1cc(C)c(Sc2cnc(NC(C)=O)s2)cc1C(=O)N1CCN(C(C)=O)CC1` [B, Derivative of A] showed an IC50 of 260 nM. The Kd in assay [2] (read-out: K D) was 75 nM.
Turning to `CC(C)Oc1ccc2cccc(-n3cc(NC(N)=O)c(C(N)=O)n3)c2c1` [C, Pfizer compound 9], in assay [1], the IC50 turned out to be 24 nM. Moreover, the Kd in assay [2] (read-out: K D) stood at 25 nM.
For `CC(=O)N1CCCC(n2nc(-c3cccc(C(=O)Nc4ccc(C(C)C)cc4)c3)c3c(N)ncnc32)C1` (centres unmarked) [E, Derivative of D] the same measures were 460 nM and 1100 nM.
In the same order, the values of `CCc1ccc2nc(Nc3cc(Cc4ccccc4)nc(N[C@H]4CC[C@H](O)CC4)n3)sc2c1` [G, GSK compound 13] are 3.5 nM and 3.6 nM.
`COc1ccc(OCCn2c(NC(=O)c3ccco3)nc3ccccc32)cc1` [J-31] came in with a Kd in assay [2] of 3400 nM. For the same molecule, the remaining binding at 50 µM at CLK1 turned out to be 21%. The IC50 in assay [3] came to 5500 nM.
In assay [2], `CCOC(=O)/C=C1\CC(=O)Nc2cc(C)c(C)cc2N1` [J-95] displayed a Kd of 1000 nM. Also, the remaining binding at 20 µM on HCK worked out at 33%; on LCK, 29%. In addition, half-maximal inhibition in assay [3] (IC50) was put at 3300 nM.

These data come from article PMC6120236 (FEBS Open Bio, 2018).
